How the values were obtained:
[1] = biological target: T1, muscle-type nicotinic acetylcholine receptors (Homo sapiens, UniProt P02708+P07510+Q07001); assay: Determination of interaction with muscle receptors; type: cell-based; settings: maximal activation as percentage of maximal activation induced by (S)-(-)-nicotine; for Emax: read-out: effect at muscle sites (Emax)
T1 construct: endogenous in cells; host or cells: TE671/RD (own knowledge of the cited US 5,597,919)
Procedure: (§1) The determination of the interaction of the compounds with muscle receptors was carried out in accordance with the techniques described in U.S. Pat. No. 5,597,919 to Dull et al. The maximal activation for individual compounds (Emax) was determined as a percentage of the maximal activation induced by (S)-(−)-nicotine. Reported Emax values represent the amount released relative to (S)-(−)-nicotine on a percentage basis. […] Such preferable compounds have the capability to activate human CNS receptors without activating muscle-type nicotinic acetylcholine receptors. Thus, there is provided a therapeutic window for utilization in the treatment of CNS disorders. […] The compounds begin to cause muscle effects only when employed in amounts of many times those required to activate dopamine release.

[2] = tested on: ganglia-type nicotinic acetylcholine receptors; assay: Determination of interaction with ganglion receptors; type: cell-based; settings: maximal activation as percentage of maximal activation induced by (S)-(-)-nicotine
Procedure: as §1, with “ganglionic” for “muscle”, “ganglia-type” for “muscle-type”, “cause” for “cause muscle”, “effects at ganglia” for “effects”

CNS nicotinic receptors = CNS nicotinic receptors (Rattus norvegicus, UniProt P09483+P12390); assay: Determination of binding to relevant receptor sites; settings: inhibition constants calculated from IC50 values by the method of Cheng et al.
Procedure: Binding of the compounds to relevant receptor sites was determined in accordance with the techniques described in U.S. Pat. No. 5,597,919 to Dull et al. Inhibition constants (Ki values), reported in nM, were calculated from the IC50 values using the method of Cheng et al., Biochem, Pharmacol. 22:3099 (1973).

T1 sequence (P02708 21-457): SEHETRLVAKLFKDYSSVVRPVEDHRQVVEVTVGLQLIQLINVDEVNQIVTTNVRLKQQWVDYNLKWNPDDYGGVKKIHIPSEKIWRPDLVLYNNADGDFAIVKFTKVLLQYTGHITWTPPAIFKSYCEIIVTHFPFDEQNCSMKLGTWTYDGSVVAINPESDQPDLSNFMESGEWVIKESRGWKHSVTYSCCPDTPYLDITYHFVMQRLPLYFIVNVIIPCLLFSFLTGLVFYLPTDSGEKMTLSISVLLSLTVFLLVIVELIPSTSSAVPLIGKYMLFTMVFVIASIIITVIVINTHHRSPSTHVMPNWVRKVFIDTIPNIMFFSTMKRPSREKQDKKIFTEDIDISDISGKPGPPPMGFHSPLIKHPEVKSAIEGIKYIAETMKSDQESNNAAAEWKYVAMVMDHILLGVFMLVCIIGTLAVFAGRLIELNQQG
T1 sequence (P11230 24-501 partner): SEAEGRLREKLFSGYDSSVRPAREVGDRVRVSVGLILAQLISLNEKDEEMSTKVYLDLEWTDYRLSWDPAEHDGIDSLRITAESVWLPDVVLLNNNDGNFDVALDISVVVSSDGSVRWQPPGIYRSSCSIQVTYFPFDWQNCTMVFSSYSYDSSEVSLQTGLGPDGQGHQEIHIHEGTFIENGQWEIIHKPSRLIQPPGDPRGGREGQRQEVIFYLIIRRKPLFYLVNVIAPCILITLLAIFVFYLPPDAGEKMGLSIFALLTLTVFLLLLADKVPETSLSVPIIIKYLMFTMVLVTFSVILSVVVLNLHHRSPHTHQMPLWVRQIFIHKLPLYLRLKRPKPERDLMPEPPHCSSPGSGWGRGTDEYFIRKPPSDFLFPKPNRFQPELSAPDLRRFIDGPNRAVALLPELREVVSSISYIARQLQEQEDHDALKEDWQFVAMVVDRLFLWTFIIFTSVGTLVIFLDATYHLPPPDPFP
T1 sequence (Q07001 22-517): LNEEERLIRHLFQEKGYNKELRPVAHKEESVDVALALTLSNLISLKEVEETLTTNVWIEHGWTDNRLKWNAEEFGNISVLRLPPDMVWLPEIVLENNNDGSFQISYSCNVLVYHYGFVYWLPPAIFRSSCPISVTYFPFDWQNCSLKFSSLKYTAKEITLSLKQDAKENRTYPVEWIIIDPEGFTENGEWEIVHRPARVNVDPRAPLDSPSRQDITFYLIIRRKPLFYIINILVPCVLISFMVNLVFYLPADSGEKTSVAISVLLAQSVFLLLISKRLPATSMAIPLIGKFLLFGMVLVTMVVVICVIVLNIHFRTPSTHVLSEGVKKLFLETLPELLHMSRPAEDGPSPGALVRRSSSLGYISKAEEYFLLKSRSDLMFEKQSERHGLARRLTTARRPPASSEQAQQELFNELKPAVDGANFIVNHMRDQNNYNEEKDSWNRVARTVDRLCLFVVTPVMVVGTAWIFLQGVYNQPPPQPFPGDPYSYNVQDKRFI
T1 sequence (P07510 23-517): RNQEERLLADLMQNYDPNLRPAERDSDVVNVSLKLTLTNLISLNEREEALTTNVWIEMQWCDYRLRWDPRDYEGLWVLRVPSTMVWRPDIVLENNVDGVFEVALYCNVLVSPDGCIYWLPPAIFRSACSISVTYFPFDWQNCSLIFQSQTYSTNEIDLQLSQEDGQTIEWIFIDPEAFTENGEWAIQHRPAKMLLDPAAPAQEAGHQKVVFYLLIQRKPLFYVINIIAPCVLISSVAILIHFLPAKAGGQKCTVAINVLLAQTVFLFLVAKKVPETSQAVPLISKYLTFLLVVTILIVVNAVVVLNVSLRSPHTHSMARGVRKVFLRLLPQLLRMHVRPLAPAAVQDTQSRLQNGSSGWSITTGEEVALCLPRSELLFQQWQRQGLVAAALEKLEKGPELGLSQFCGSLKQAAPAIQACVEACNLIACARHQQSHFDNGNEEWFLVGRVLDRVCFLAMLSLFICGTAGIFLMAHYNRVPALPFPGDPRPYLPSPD
Sequence of CNS nicotinic receptors (P09483 31-630): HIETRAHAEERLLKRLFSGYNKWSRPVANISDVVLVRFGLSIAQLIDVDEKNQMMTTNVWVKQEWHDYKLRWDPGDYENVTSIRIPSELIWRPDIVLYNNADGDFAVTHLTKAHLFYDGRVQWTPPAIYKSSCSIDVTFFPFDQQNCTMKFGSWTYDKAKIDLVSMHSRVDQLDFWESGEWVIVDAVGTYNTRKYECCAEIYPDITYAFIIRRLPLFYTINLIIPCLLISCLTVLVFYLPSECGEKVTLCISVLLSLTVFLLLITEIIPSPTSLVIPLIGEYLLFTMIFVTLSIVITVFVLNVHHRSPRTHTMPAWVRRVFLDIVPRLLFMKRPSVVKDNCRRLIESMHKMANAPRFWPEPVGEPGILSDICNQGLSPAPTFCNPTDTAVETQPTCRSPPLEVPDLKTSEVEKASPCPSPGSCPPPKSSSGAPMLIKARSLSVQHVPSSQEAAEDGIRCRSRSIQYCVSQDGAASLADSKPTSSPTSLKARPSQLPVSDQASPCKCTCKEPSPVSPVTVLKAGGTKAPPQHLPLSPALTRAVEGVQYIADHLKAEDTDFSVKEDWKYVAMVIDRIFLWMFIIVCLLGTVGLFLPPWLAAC
Sequence of CNS nicotinic receptors (P12390 25-500): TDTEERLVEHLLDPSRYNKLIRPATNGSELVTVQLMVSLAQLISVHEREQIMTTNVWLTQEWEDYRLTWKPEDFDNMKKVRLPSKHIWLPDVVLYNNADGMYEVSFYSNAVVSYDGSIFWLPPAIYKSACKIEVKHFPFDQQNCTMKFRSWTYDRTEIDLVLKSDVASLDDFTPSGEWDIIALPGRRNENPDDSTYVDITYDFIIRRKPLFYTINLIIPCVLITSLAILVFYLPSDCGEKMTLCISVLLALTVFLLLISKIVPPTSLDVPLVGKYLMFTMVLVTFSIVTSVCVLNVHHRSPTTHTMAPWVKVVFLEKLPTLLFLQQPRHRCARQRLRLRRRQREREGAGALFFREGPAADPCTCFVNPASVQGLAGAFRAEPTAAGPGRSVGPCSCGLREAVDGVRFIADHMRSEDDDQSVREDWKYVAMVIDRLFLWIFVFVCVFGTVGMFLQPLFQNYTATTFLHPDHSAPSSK

Row | Molecule | effect at muscle sites (Emax) [1] | Emax [1] | effect at ganglia sites (Emax) [2] | Ki (CNS nicotinic receptors)
1 | Methyl(3-(6-methyl(3-pyridyloxy))propyl)amine Hemigalactarate [Example 20] | 0% |  |  | 
2 | Cl.Cl.c1cncc(OC2CCNCC2)c1 [Example 35, 3-(4-Piperidinyloxy)pyridine dihydrochloride] |  | 16% | 9% | 
3 | 3-(3-Pyridyloxy)propylamine Hemigalactarate [Example 10] | 0% |  | 0% | 
4 | CN(C)CCOc1cccnc1 [Example 9, Dimethyl(2-(3-pyridyloxy)ethylamine Hemigalactarate] |  | 0% | 0% | 
5 | Methyl(3-(5-methoxy-3-pyridyloxy)propyl)amine Hemigalactarate [Example 17] | 10% |  | 5% | 
6 | (3-(5-Chloro(3-pyridyloxy))propyl)methylamine Hemigalactarate [Example 16] | 16% |  | 7% | 
7 | Cyclopropyl(3-(3-pyridyloxy)propyl)amine Hemigalactarate [Example 25] | 9% |  | 10% | 
8 | (3-(3-Aminophenoxy)propyl)methylamine Hemigalactarate [Example 30] | 11% |  | 5% | 
9 | Methyl(1-methyl-3-(3-pyridyloxy)propyl)amine Hemigalactarate [Example 26] | 16% |  | 20% | 
10 | 3-(5-Chloro-3-pyridyloxy)propylamine Hemigalactarate [Example 15] | 0% |  | 4% | 
11 | Methyl(2-(3-pyridyloxy)ethyl)amine Hemigalactarate [Example 8] | 0% |  | 0% | 
12 | Ethyl(3-(3-pyridyloxy)propyl)amine Hemigalactarate [Example 22] | 13% |  | 13% | 
13 | CNCCCSc1cncc(Br)c1 [Example 6, 3-(5-Bromo-3-pyridylthio))propyl)methylamine Hemigalactarate] |  |  |  | 40 µM
14 | Methyl(3-(3-nitrophenoxy)propyl)amine Hemigalactarate [Example 28] | 10% |  | 9% | 
15 | Methyl(3-(5-(phenylmethoxy)(3-pyridyloxy))propyl)amine Hemigalactarate [Example 19] | 1% |  | 3% | 
16 | Methyl(3-(5-isopropoxy-3-pyridyloxy)propyl)amine Monogalactarate [Example 18] | 22% |  | 0% | 
17 | Dimethyl(3-(3-pyridyloxy)propyl)amine Hemigalactarate [Example 11] | 8% |  | 5% | 
18 | 4-(3-Pyridyloxy)butylamine Hemigalactarate [Example 12] | 0% |  | 11% | 
19 | Methyl(3-(2-methyl(3-pyridyloxy))propyl)amine Hemigalactarate [Example 21] | 0% |  | 15% | 

Source: patent US6627648B1, “Pharmaceutical compositions and methods for use” (Targacept, Inc., priority 1999, dated 2003)
